Measurements published in US9884063B2, “Amido-substituted azole compounds” (Bayer Pharma Aktiengesellschaft, priority 2014, dated 2018).
Where “and” joins values, the source holds several entries; their conditions need not be identical. Identical values can stand only once. Counter-ions that a name gives are not always drawn.

Experiments:
TNKS2 = biological target: T1, TNKS2 (Homo sapiens, UniProt Q9H2K2); assay: Modified TNKS2 Assay 3 (BPS kit #80578, biotin-NAD+, 96 well); assay type: biochemical; settings: human TNKS2, BPS kit #80578, 96 well
T1 sequence (Q9H2K2 1-1166): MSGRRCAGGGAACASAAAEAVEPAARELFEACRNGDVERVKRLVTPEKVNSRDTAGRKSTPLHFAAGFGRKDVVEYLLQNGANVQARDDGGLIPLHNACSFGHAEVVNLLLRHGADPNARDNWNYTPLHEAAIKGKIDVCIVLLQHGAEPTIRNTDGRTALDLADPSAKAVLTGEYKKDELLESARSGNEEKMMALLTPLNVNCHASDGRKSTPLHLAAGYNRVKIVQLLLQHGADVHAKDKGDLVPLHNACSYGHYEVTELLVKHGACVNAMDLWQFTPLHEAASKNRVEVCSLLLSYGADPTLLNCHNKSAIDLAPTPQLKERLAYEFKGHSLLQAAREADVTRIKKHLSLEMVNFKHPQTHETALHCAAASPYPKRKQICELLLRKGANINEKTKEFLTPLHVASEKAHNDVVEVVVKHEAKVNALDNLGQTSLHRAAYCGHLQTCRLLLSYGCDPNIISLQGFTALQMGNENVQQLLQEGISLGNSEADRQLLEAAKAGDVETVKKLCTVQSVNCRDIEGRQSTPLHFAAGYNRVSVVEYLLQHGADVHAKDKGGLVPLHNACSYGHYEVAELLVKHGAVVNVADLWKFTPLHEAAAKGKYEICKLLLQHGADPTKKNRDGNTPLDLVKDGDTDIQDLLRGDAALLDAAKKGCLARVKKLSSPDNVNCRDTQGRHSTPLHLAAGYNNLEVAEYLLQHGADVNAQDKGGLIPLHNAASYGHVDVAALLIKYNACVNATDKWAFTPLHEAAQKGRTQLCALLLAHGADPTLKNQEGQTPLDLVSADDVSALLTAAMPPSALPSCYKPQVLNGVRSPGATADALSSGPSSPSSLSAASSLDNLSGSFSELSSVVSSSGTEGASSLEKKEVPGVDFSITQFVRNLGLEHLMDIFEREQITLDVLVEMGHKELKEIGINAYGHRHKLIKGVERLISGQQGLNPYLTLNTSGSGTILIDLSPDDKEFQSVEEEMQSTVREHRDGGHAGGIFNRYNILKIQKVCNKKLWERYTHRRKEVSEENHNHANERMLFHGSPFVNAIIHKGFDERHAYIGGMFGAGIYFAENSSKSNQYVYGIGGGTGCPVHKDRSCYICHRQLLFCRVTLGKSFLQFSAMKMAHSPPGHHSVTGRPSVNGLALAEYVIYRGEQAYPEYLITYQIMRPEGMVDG
Summary of the method: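 Commercial kit assay measuring TNKS2-catalysed incorporation of biotin-labelled NAD+ into a protein substrate, detected by streptavidin-HRP chemiluminescence. Run per manufacturer's protocol; IC50 is the concentration halving the normalised signal.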

[1] = system: wildtype Wnt signaling cascade; assay: HEK293 TOP Assay (Super TopFlash luciferase reporter, Wnt-3a stimulated); assay type: cell-based; settings: HEK293 TOP reporter cell line, Wnt-3a at EC50, 16 hours incubation, compound dilution series 50 μM to 15 nM
Summary of the method: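 HEK293 cells stably carrying Super TopFlash (TOP) or FOP reporter, stimulated with recombinant human Wnt-3a (2500–5 ng/ml, two-fold steps). Both lines incubated in parallel with compound from 50 μM to 15 nM (3.16-fold) in CAFTY buffer pH 7.4 with 2 mM Ca2+ and 0.01% BSA; selectivity judged TOP vs FOP.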

Structure (SMILES)	IC50 (TNKS2)	IC50 ([1]; Homo sapiens, HEK293, 16 h) [nM]	IC50 [1] [nM]	IC50 ([1]; Homo sapiens) [nM]
O=C(Nc1ccc(NC(=O)c2nc[nH]c2C(=O)NCCN2CCC(F)CC2)cc1)c1ccc(F)cc1Cl [Example 230, N^4-{4-[(2-chloro-4-fluorobenzoyl)amino]phenyl}-N^5-[2-(4-fluoropiperidin-1-yl)ethyl]-1H-imidazole-4,5-dicarboxamide]	20 nM	200		
CC(CN1CCOCC1)NC(=O)c1[nH]cnc1C(=O)Nc1ccc(NC(=O)c2ccc(F)cc2Cl)cc1 (single isomer, unassigned; enantiomer 1) [Example 269, N^4-{4-[(2-chloro-4-fluorobenzoyl)amino]phenyl}-N^5-[1-(morpholin-4-yl)propan-2-yl]-1H-imidazole-4,5-dicarboxamide (enantiomer 1)]	130 nM		440	
CCc1nc(C(=O)Nc2ccc(NC(=O)c3ccc(F)cc3Cl)cc2)c(C(=O)NCCN2CCCCC2)[nH]1 [Example 70, N^4-{4-[(2-chloro-4-fluorobenzoyl)amino]phenyl}-2-ethyl-N^5-[2-(piperidin-1-yl)ethyl]-1H-imidazole-4,5-dicarboxamide]	20 nM	130		
COc1cc(NC(=O)c2[nH]cnc2C(=O)NCCN2CCCCC2)ccc1NC(=O)c1ccc(F)cc1Cl [Example 97, N^5-{4-[(2-chloro-4-fluorobenzoyl)amino]-3-methoxyphenyl}-N^4-[2-(piperidin-1-yl)ethyl]-1H-imidazole-4,5-dicarboxamide]	20 nM	80		
CNC(=O)c1nc[nH]c1C(=O)Nc1ccc(NC(=O)c2cccc(C)c2Cl)cc1 [Example 346, N^5-{4-[(2-chloro-3-methylbenzoyl)amino]phenyl}-N^4-methyl-1H-imidazole-4,5-dicarboxamide]	> 500 nM	900		
CC(CN1CCOCC1)NC(=O)c1[nH]cnc1C(=O)Nc1ccc(NC(=O)c2ccc(F)cc2)cc1 (single isomer, unassigned; enantiomer 1) [Example 295, N^4-{4-[(4-fluorobenzoyl)amino]phenyl}-N^5-[1-(morpholin-4-yl)propan-2-yl]-1H-imidazole-4,5-dicarboxamide (enantiomer 1)]	190 nM		690	
CC(C)(N)CNC(=O)c1ncoc1C(=O)Nc1ccc(NC(=O)c2ccc(F)cc2Cl)cc1 [Example 219, N^4-(2-amino-2-methylpropyl)-N^5-{4-[(2-chloro-4-fluorobenzoyl)amino]phenyl}-1,3-oxazole-4,5-dicarboxamide]	420 nM	7500		
CN(C)CCNC(=O)c1nc[nH]c1C(=O)Nc1ccc(NC(=O)c2ccc(S(C)(=O)=O)cc2Cl)cc1 [Example 54, N^5-(4-{[2-chloro-4-(methylsulfonyl)benzoyl]amino}phenyl)-N^4-[2-(dimethylamino)ethyl]-1H-imidazole-4,5-dicarboxamide]	6 nM	1450		
O=C(Nc1ccc(NC(=O)c2nc[nH]c2C(=O)NCCN2CC[C@@H](F)C2)cc1)c1ccc(F)cc1Cl [Example 231, N^4-{4-[(2-chloro-4-fluorobenzoyl)amino]phenyl}-N^5-{2-[(3R)-3-fluoropyrrolidin-1-yl]ethyl}-1H-imidazole-4,5-dicarboxamide]	20 nM	70		
O=C(Nc1ccc(NC(=O)c2nc[nH]c2C(=O)NCCN2CCC[C@H](O)C2)cc1)c1ccc(F)cc1Cl [Example 271, N^4-{4-[(2-chloro-4-fluorobenzoyl)amino]phenyl}-N^5-{2-[(3S)-3-hydroxypiperidin-1-yl]ethyl}-1H-imidazole-4,5-dicarboxamide]	2 nM	30		
O=C(Nc1ccc(NC(=O)c2[nH]cnc2C(=O)NCCN2CCCCC2)cc1F)c1ccccc1Cl [Example 82, N^5-{4-[(2-chlorobenzoyl)amino]-3-fluorophenyl}-N^4-[2-(piperidin-1-yl)ethyl]-1H-imidazole-4,5-dicarboxamide]	< 0.5 nM	90		
O=C(Nc1ccc(NC(=O)c2nc[nH]c2C(=O)NCCN2CCC(F)(F)CC2)cc1)c1ccc(F)cc1Br [Example 215, N^4-{4-[(2-bromo-4-fluorobenzoyl)amino]phenyl}-N^5-[2-(4,4-difluoropiperidin-1-yl)ethyl]-1H-imidazole-4,5-dicarboxamide]	120 nM	400		
O=C(Nc1ccc(NC(=O)c2nc[nH]c2C(=O)NCC2CCCN2)cc1)c1ccc(F)cc1Cl (centres unmarked) [Example 284, N^4-{4-[(2-chloro-4-fluorobenzoyl)amino]phenyl}-N^5-(pyrrolidin-2-ylmethyl)-1H-imidazole-4,5-dicarboxamide hydrochloride salt]	10 nM			680
O=C(Nc1ccc(NC(=O)c2ocnc2C(=O)NCCN2CCCC(F)C2)cc1)c1ccc(F)cc1Cl (centres unmarked) [Example 220, N^5-{4-[(2-chloro-4-fluorobenzoyl)amino]phenyl}-N^4-[2-(3-fluoropiperidin-1-yl)ethyl]-1,3-oxazole-4,5-dicarboxamide]	100 nM	690		
CC(CN1CCOCC1)NC(=O)c1[nH]cnc1C(=O)Nc1ccc(NC(=O)c2ccc(F)cc2Cl)cc1 (centres unmarked) [Example 268, N^4-{4-[(2-chloro-4-fluorobenzoyl)amino]phenyl}-N^5-[1-(morpholin-4-yl)propan-2-yl]-1H-imidazole-4,5-dicarboxamide]	3 nM	60		

Second part, led by results:

IC50 (TNKS2)	IC50 ([1]; Homo sapiens, HEK293, 16 h) [nM]	IC50 [1] [nM]	Structure (SMILES)	IC50 ([1]; Homo sapiens) [nM]
20 nM	460		O=C(Nc1ccc(NC(=O)c2nc[nH]c2C(=O)NC2CCOCC2)cc1)c1ccc(F)cc1Cl [Example 234, N^4-{4-[(2-chloro-4-fluorobenzoyl)amino]phenyl}-N^5-(tetrahydro-2H-pyran-4-yl)-1H-imidazole-4,5-dicarboxamide]	
40 nM	190		O=C(Nc1ccc(NC(=O)c2[nH]cnc2C(=O)NC2CC2)cc1)c1ccc(F)cc1Cl [Example 45, N^5-{4-[(2-chloro-4-fluorobenzoyl)amino]phenyl}-N^4-cyclopropyl-1H-imidazole-4,5-dicarboxamide]	
4 nM and < 0.5 nM	30		O=C(Nc1ccc(NC(=O)c2nc[nH]c2C(=O)NCCN2CCCC2)cc1)c1ccc(F)cc1Cl [Example 228, N^4-{4-[(2-chloro-4-fluorobenzoyl)amino]phenyl}-N^5-[2-(pyrrolidin-1-yl)ethyl]-1H-imidazole-4,5-dicarboxamide]	
60 nM	120		O=C(Nc1ccc(NC(=O)c2nc[nH]c2C(=O)N2CCC2)cc1)c1ccc(F)cc1Cl [Example 142, 5-(azetidin-1-ylcarbonyl)-N-{4-[(2-chloro-4-fluorobenzoyl)amino]phenyl}-1H-imidazole-4-carboxamide]	
70 nM	90		O=C(Nc1ccc(NC(=O)c2[nH]cnc2C(=O)N2CC(F)C2)cc1)c1ccc(F)cc1Cl [Example 41, N-{4-[(2-chloro-4-fluorobenzoyl)amino]phenyl}-4-[(3-fluoroazetidin-1-yl)carbonyl]-1H-imidazole-5-carboxamide]	
430 nM	140		O=C(Nc1ccc(NC(=O)c2nc[nH]c2C(=O)NCCO)cc1)c1ccc(F)cc1Cl [Example 132, N^4-{4-[(2-chloro-4-fluorobenzoyl)amino]phenyl}-N^5-(2-hydroxyethyl)-1H-imidazole-4,5-dicarboxamide]	
350 nM	360		O=C(Nc1ccc(NC(=O)c2nc[nH]c2C(=O)NCC(F)F)cc1)c1ccc(F)cc1Cl [Example 139, N^4-{4-[(2-chloro-4-fluorobenzoyl)amino]phenyl}-N^5-(2,2-difluoroethyl)-1H-imidazole-4,5-dicarboxamide]	
